Data published in patent US10167262B2, “Herbicidal substituted 3-arylpyrazoles” (FMC CORPORATION, priority 2014, dated 2019).

Columns and labels:
Format in all cases: in vivo
[1] = test system: winter barley (Hordeum vulgare); experiment: Test C postemergence greenhouse test, plant response rating 0-100; details: for Plant response rating, Barley: scale 0 to 100
How it was run: (§1)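 Each weed species was grown in potting medium and sprayed after emergence, when 2–18 cm tall. Ratings, made by eye relative to control pots, were recorded 13–15 days later using a scale where 0 is no effect.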

[2] = test system: windgrass (Apera spica-venti); experiment: as above; details: for Plant response rating, Windgrass: scale 0 to 100
How it was run: as §1

[3] = test system: lambsquarters (Chenopodium album); experiment: Test C pre-/postemergence greenhouse test, plant response rating 0-100; details: Postemergence; for Plant response rating, Lambsquarters: scale 0 to 100
How it was run: (§2)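 Plants were treated either at seeding (soil of loam and sand) or as 2–18 cm seedlings in a sphagnum peat mix, using test chemicals in a surfactant-containing non-phytotoxic solvent. Visual assessment relative to controls followed 13–15 days later.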

[4] = test system: galium (catchweed bedstraw, Galium aparine); experiment: as above; details: Postemergence; for Plant response rating, Galium: scale 0 to 100
How it was run: as §2

[5] = test system: johnsongrass (Sorghum halepense); experiment: as above; details: Postemergence; for Plant response rating, Johnsongrass: scale 0 to 100
How it was run: as §2

[6] = test system: corn (Zea mays); experiment: as above; details: Postemergence; for Plant response rating, Corn: scale 0 to 100
How it was run: as §2

[7] = test system: ragweed (common ragweed, Ambrosia elatior); experiment: as above; details: Postemergence; for Plant response rating, Ragweed: scale 0 to 100;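 for all read-outs here: 0 is no effect and 100 is complete control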
How it was run: as §2

[8] = test system: morningglory (Ipomoea coccinea); experiment: as above; details: Postemergence; for Plant response rating, Morningglory: scale 0 to 100
How it was run: as §2

[9] = test system: blackgrass (Alopecurus myosuroides); experiment: as above; details: Postemergence; for Plant response rating, Blackgrass: scale 0 to 100;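 for all read-outs here: 0 is no effect and 100 is complete control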
How it was run: as §2

[10] = test system: large (Lg) crabgrass (Digitaria sanguinalis); experiment: as above; details: Postemergence; for Plant response rating, Crabgrass, Large: scale 0 to 100
How it was run: as §2

[11] = test system: velvetleaf (Abutilon theophrasti); experiment: as above; details: Postemergence; for Plant response rating, Velvetleaf: scale 0 to 100
How it was run: as §2

[12] = test system: winter wheat (Triticum aestivum); experiment: as above; details: Postemergence; for Plant response rating, Wheat: scale 0 to 100
How it was run: as §2

[13] = test system: yellow nutsedge (Cyperus esculentus); experiment: as above; details: Postemergence; for Plant response rating, Nutsedge, Yellow: scale 0 to 100
How it was run: as §2

[14] = test system: pigweed (Amaranthus retroflexus); experiment: as above; details: Postemergence; for Plant response rating, Pigweed: scale 0 to 100
How it was run: as §2

Cn1cc(C(=O)c2cccs2)c(-c2cc(Cl)cc(Cl)c2)n1 [Compound 17]
15: Plant response rating (0 to 100), Lambsquarters ([3]; 62 g ai/ha) | Plant response rating, Johnsongrass ([5]; 500 g ai/ha) | Plant response rating, Morningglory ([8]; 500 g ai/ha) | Plant response rating, Crabgrass, Large ([10]; 500 g ai/ha)
5: Plant response rating (0 to 100), Morningglory ([8]; 62 g ai/ha) | Plant response rating (0 to 100), Morningglory ([8]; 125 g ai/ha) | Plant response rating, Blackgrass ([9]; 500 g ai/ha) | Plant response rating (0 to 100), Crabgrass, Large ([10]; 125 g ai/ha) | Plant response rating (0 to 100), Nutsedge, Yellow ([13]; 125 g ai/ha) | Plant response rating, Nutsedge, Yellow ([13]; 250 g ai/ha) | Plant response rating, Nutsedge, Yellow ([13]; 500 g ai/ha)
80: Plant response rating, Lambsquarters ([3]; 250 g ai/ha) | Plant response rating (0 to 100), Velvetleaf ([11]; 62 g ai/ha) | Plant response rating (0 to 100), Velvetleaf ([11]; 125 g ai/ha) | Plant response rating, Velvetleaf ([11]; 250 g ai/ha) | Plant response rating, Velvetleaf ([11]; 500 g ai/ha) | Plant response rating (0 to 100), Pigweed ([14]; 125 g ai/ha)
0: Plant response rating (0 to 100), Barley ([1]; 62 g ai/ha) | Plant response rating, Barley ([1]; 125 g ai/ha) | Plant response rating, Barley ([1]; 250 g ai/ha) | Plant response rating, Barley ([1]; 500 g ai/ha) | Plant response rating (0 to 100), Windgrass ([2]; 62 g ai/ha) | Plant response rating (0 to 100), Windgrass ([2]; 125 g ai/ha) | Plant response rating, Windgrass ([2]; 250 g ai/ha) | Plant response rating, Windgrass ([2]; 500 g ai/ha) | Plant response rating (0 to 100), Galium ([4]; 62 g ai/ha) | Plant response rating (0 to 100), Galium ([4]; 125 g ai/ha) | Plant response rating, Galium ([4]; 250 g ai/ha) | Plant response rating (0 to 100), Johnsongrass ([5]; 62 g ai/ha) | Plant response rating (0 to 100), Johnsongrass ([5]; 125 g ai/ha) | Plant response rating (0 to 100), Ragweed ([7]; 62 g ai/ha) | Plant response rating (0 to 100), Blackgrass ([9]; 62 g ai/ha) | Plant response rating, Blackgrass ([9]; 125 g ai/ha) | Plant response rating, Blackgrass ([9]; 250 g ai/ha) | Plant response rating (0 to 100), Crabgrass, Large ([10]; 62 g ai/ha) | Plant response rating (0 to 100), Wheat ([12]; 62 g ai/ha) | Plant response rating (0 to 100), Wheat ([12]; 125 g ai/ha) | Plant response rating, Wheat ([12]; 250 g ai/ha) | Plant response rating, Wheat ([12]; 500 g ai/ha) | Plant response rating (0 to 100), Nutsedge, Yellow ([13]; 62 g ai/ha)
20: Plant response rating, Galium ([4]; 500 g ai/ha)
55: Plant response rating (0 to 100), Lambsquarters ([3]; 125 g ai/ha)
85: Plant response rating, Pigweed ([14]; 500 g ai/ha)
98: Plant response rating, Lambsquarters ([3]; 500 g ai/ha)
10: Plant response rating, Johnsongrass ([5]; 250 g ai/ha) | Plant response rating, Corn ([6]; 500 g ai/ha) | Plant response rating (0 to 100), Ragweed ([7]; 125 g ai/ha) | Plant response rating, Ragweed ([7]; 250 g ai/ha) | Plant response rating, Ragweed ([7]; 500 g ai/ha) | Plant response rating, Morningglory ([8]; 250 g ai/ha) | Plant response rating, Crabgrass, Large ([10]; 250 g ai/ha)
75: Plant response rating (0 to 100), Pigweed ([14]; 62 g ai/ha)

CCn1cc(C(=O)c2ccccc2)c(-c2cc(Br)cc(Br)c2)n1 [Compound 38]
85: Plant response rating (0 to 100), Pigweed ([14]; 62 g ai/ha)
5: Plant response rating, Galium ([4]; 250 g ai/ha) | Plant response rating (0 to 100), Morningglory ([8]; 125 g ai/ha) | Plant response rating, Morningglory ([8]; 250 g ai/ha) | Plant response rating, Blackgrass ([9]; 250 g ai/ha) | Plant response rating, Wheat ([12]; 250 g ai/ha)
35: Plant response rating, Ragweed ([7]; 250 g ai/ha)
90: Plant response rating (0 to 100), Velvetleaf ([11]; 125 g ai/ha)
10: Plant response rating (0 to 100), Ragweed ([7]; 62 g ai/ha)
20: Plant response rating (0 to 100), Ragweed ([7]; 125 g ai/ha)
100: Plant response rating, Lambsquarters ([3]; 250 g ai/ha) | Plant response rating, Pigweed ([14]; 250 g ai/ha)
75: Plant response rating (0 to 100), Lambsquarters ([3]; 62 g ai/ha) | Plant response rating (0 to 100), Lambsquarters ([3]; 125 g ai/ha) | Plant response rating (0 to 100), Velvetleaf ([11]; 62 g ai/ha)
0: Plant response rating (0 to 100), Barley ([1]; 31 g ai/ha) | Plant response rating (0 to 100), Barley ([1]; 62 g ai/ha) | Plant response rating (0 to 100), Barley ([1]; 125 g ai/ha) | Plant response rating, Barley ([1]; 250 g ai/ha) | Plant response rating (0 to 100), Windgrass ([2]; 62 g ai/ha) | Plant response rating (0 to 100), Windgrass ([2]; 125 g ai/ha) | Plant response rating, Windgrass ([2]; 250 g ai/ha) | Plant response rating (0 to 100), Galium ([4]; 31 g ai/ha) | Plant response rating (0 to 100), Galium ([4]; 62 g ai/ha) | Plant response rating (0 to 100), Galium ([4]; 125 g ai/ha) | Plant response rating (0 to 100), Johnsongrass ([5]; 62 g ai/ha) | Plant response rating (0 to 100), Johnsongrass ([5]; 125 g ai/ha) | Plant response rating, Johnsongrass ([5]; 250 g ai/ha) | Plant response rating (0 to 100), Morningglory ([8]; 62 g ai/ha) | Plant response rating (0 to 100), Blackgrass ([9]; 31 g ai/ha) | Plant response rating (0 to 100), Blackgrass ([9]; 62 g ai/ha) | Plant response rating (0 to 100), Blackgrass ([9]; 125 g ai/ha) | Plant response rating (0 to 100), Crabgrass, Large ([10]; 31 g ai/ha) | Plant response rating (0 to 100), Crabgrass, Large ([10]; 62 g ai/ha) | Plant response rating (0 to 100), Crabgrass, Large ([10]; 125 g ai/ha) | Plant response rating, Crabgrass, Large ([10]; 250 g ai/ha) | Plant response rating (0 to 100), Wheat ([12]; 62 g ai/ha) | Plant response rating (0 to 100), Wheat ([12]; 125 g ai/ha) | Plant response rating (0 to 100), Nutsedge, Yellow ([13]; 62 g ai/ha) | Plant response rating (0 to 100), Nutsedge, Yellow ([13]; 125 g ai/ha) | Plant response rating, Nutsedge, Yellow ([13]; 250 g ai/ha)

Clc1cc(Cl)cc(-c2n[nH]cc2C(=NNc2ccccc2Cl)c2ccccc2)c1 [Compound 66]
40: Plant response rating (0 to 100), Lambsquarters ([3]; 62 g ai/ha)
50: Plant response rating (0 to 100), Lambsquarters ([3]; 125 g ai/ha)
95: Plant response rating, Ragweed ([7]; 500 g ai/ha) | Plant response rating, Pigweed ([14]; 250 g ai/ha)
85: Plant response rating (0 to 100), Pigweed ([14]; 125 g ai/ha)
10: Plant response rating (0 to 100), Ragweed ([7]; 62 g ai/ha)
100: Plant response rating, Pigweed ([14]; 500 g ai/ha)
80: Plant response rating (0 to 100), Ragweed ([7]; 125 g ai/ha) | Plant response rating, Velvetleaf ([11]; 250 g ai/ha)
90: Plant response rating, Lambsquarters ([3]; 250 g ai/ha) | Plant response rating, Lambsquarters ([3]; 500 g ai/ha) | Plant response rating, Velvetleaf ([11]; 500 g ai/ha)
0: Plant response rating (0 to 100), Barley ([1]; 62 g ai/ha) | Plant response rating (0 to 100), Barley ([1]; 125 g ai/ha) | Plant response rating, Barley ([1]; 250 g ai/ha) | Plant response rating, Barley ([1]; 500 g ai/ha) | Plant response rating (0 to 100), Windgrass ([2]; 62 g ai/ha) | Plant response rating (0 to 100), Windgrass ([2]; 125 g ai/ha) | Plant response rating, Windgrass ([2]; 250 g ai/ha) | Plant response rating, Windgrass ([2]; 500 g ai/ha) | Plant response rating (0 to 100), Galium ([4]; 62 g ai/ha) | Plant response rating (0 to 100), Galium ([4]; 125 g ai/ha) | Plant response rating, Galium ([4]; 250 g ai/ha) | Plant response rating (0 to 100), Johnsongrass ([5]; 62 g ai/ha) | Plant response rating (0 to 100), Johnsongrass ([5]; 125 g ai/ha) | Plant response rating, Johnsongrass ([5]; 250 g ai/ha) | Plant response rating, Johnsongrass ([5]; 500 g ai/ha) | Plant response rating (0 to 100), Corn ([6]; 62 g ai/ha) | Plant response rating (0 to 100), Corn ([6]; 125 g ai/ha) | Plant response rating (0 to 100), Blackgrass ([9]; 62 g ai/ha) | Plant response rating (0 to 100), Blackgrass ([9]; 125 g ai/ha) | Plant response rating, Blackgrass ([9]; 250 g ai/ha) | Plant response rating, Blackgrass ([9]; 500 g ai/ha) | Plant response rating (0 to 100), Crabgrass, Large ([10]; 62 g ai/ha) | Plant response rating (0 to 100), Crabgrass, Large ([10]; 125 g ai/ha) | Plant response rating, Crabgrass, Large ([10]; 250 g ai/ha) | Plant response rating, Crabgrass, Large ([10]; 500 g ai/ha) | Plant response rating (0 to 100), Wheat ([12]; 62 g ai/ha) | Plant response rating (0 to 100), Wheat ([12]; 125 g ai/ha) | Plant response rating, Wheat ([12]; 250 g ai/ha) | Plant response rating, Wheat ([12]; 500 g ai/ha) | Plant response rating (0 to 100), Nutsedge, Yellow ([13]; 62 g ai/ha) | Plant response rating (0 to 100), Nutsedge, Yellow ([13]; 125 g ai/ha) | Plant response rating, Nutsedge, Yellow ([13]; 250 g ai/ha) | Plant response rating, Nutsedge, Yellow ([13]; 500 g ai/ha)
5: Plant response rating, Galium ([4]; 500 g ai/ha) | Plant response rating, Corn ([6]; 250 g ai/ha) | Plant response rating, Corn ([6]; 500 g ai/ha)
55: Plant response rating (0 to 100), Velvetleaf ([11]; 62 g ai/ha) | Plant response rating (0 to 100), Velvetleaf ([11]; 125 g ai/ha) | Plant response rating (0 to 100), Pigweed ([14]; 62 g ai/ha)
